# Results as given in patent US5447915A, “Terminally blocked antiviral peptides” (priority 1992, dated 1995).
# Non-standard residues stand in square brackets, D forms with d. Residues, ends and D or L forms follow the SMILES beside them. *: point of attachment. OBn = c1ccc(CO*)cc1
# Experiments:
# [1] = biological target: T1, human immunodeficiency virus (HIV-1) glycoprotein gp120 (Human immunodeficiency virus type 1 group M subtype B, UniProt P03375); assay type: binding; details: HSBCD4-M.23 cells; for inhibition of gp120 binding to CD4 (corrected mean fluorescence of CD4-expressing cells): gp120 preincubated with peptide 1 hour 37° C., about 50 μM to 900 μM
# T1 construct: a solution of gp120 (20 μg/ml) (synthesized in vitro from baculovirus and obtained from MicroGeneSys); purchased MicroGeneSys, West Haven, Conn; host or cells: gp120 from baculovirus expression; CD4 on HSBCD4-M.23 cells (HSB-2 clone transfected with CD4 cDNA)
# Procedure: The peptides prepared as described in Example 1 were characterized as to their ability to bind to the human immunodeficiency virus (HIV-1) glycoprotein gp120. This ability was assayed on the basis of the peptides ability to inhibit binding of gp120 to the human CD4 protein.
# On the day of the assay the peptides were diluted 10-fold in phosphate buffered saline (PBS) and 2-fold serial dilutions made into PBS previously adjusted to the same DMSO concentration (10%). 25 μl each of each peptide solution and a solution of gp120 (20 μg/ml) (synthesized in vitro from baculovirus and obtained from MicroGeneSys, West Haven, Conn.) were combined and incubated at 37° C. for 1 hour. A total of 3-5×10^5 HSBCD4-M.23 cells [derived from a clone of the pre-T cell leukemia line HSB-2 (obtained from the American Type Culture Collection (ATCC), Rockville, Md.) which expresses human CD4 as a result of transfaction of CD4 cDNA sequences; Diamond et al., Proc. Natl. Acad. Sci. 87: xxxx (1990)] were pelleted in the walls of a 96-well V-bottom microtiter plate, resuspended with the preincubated gp 120-peptide mixture and allowed to incubate at 4° C. for 1 hour. The cells were then pelleted and resuspended in 50μl of a solution containing rabbit anti-gp120 antibody (diluted 1:400 in PBS; MicroGeneSys, West Haven, Conn.) and incubated at 4° C. for 30 min. The cells were again pelleted, washed with 100 μl PBS and resuspended in 50μl of a solution containing fluorescein isothiocyanate (FITC)-conjugated goat anti-rabbit antibody (diluted 1:20; Tago) and incubated at 4° C. for 30 min. The cells were pelleted and washed as before, and resuspended in 100 μl of a solution containing propidium iodine at a concentration of 25 μg/ml and transferred to tubes containing 400 μl PBS for flow cytometric analysis on an Epics V (Coulter) for FAtScan (Betton-Dickinson,Mountainview, Calif.). Cells were gated on propidium iodide to exclude dead cells. Green fluorescence was collected on the linear amplifier and the mean fluorescence calculated.
# HIV = experiment: Inhibition of HIV infection of CD4-expressing human peripheral blood lymphocytes, p24 antigen; assay type: cell-based; details: peptide 160 μg/ml; human T cells from PBL
# Procedure: These cells were obtained by depleting peripheral blood mononuclear cells isolated by passage through nylon wool [Finberg et al., Science 249: 287-291 (1990)]using antibodies specific for CD8 (OKTS, obtained from ATCC) and CD16 (B73.1, a gift of G. Trinchieri) followed by treatment with antibody-coated magnetic beads [Haregerwoin et al., Nature 340: 309 (1989)]. This treatment enriches the cell population for CD4-expressing human peripheral T cells. Virus was incubated for 1 hour at 37° C. with varying concentrations of CPF(DD), or with CPF(6F) at a concentration of 160 μg/ml. The treated virus preparation was then incubated with cells for 1 hour at 37° C. Cells were washed twice and maintained in RPMI 1640/10% FCS supplemented with interleukin 2 [10 units/ml, Collaborative Research]. Cells were maintained and assayed for p24 production as described above.
# HIV-1 = details: peptide 80 μg/ml; after 4 days of co-cultivation for CPF(DD)
# Procedure: PBL-derived human T cells, infected with HIV-1, were washed extensively with RPMI 1640 media and then 10^4 infected T cells were added to 5×10^5 uninfected H9 cells in the presence or absence of CPF(DD) or CPF(δF) at concentrations of 80 μg/ml. Cells were co-cultivated and maintained at H9 cell densities of 5×10^5 cells/ml and tested after 2, .varies.and 6 days of co-cultivation. The extent of infection of H9 cells was determined by p24 antigen ELISA assay, performed 48 hours after washing the T-cell-H-9 cell mixture free of virus.
# [2] = system: conjugate formation between HBSCD4-M.23 cells and Daudi cells; details: peptide 100 μg/ml, gp120 20 μg/ml
# Procedure: Conjugate formation was assayed using HBSCD4-M.23 cells and cells from the human MHC-expressing cell line Daudi (available from ATCC). The HBSCD4-M.23 cells were labeled with 0.5 μg/ml sulfofluorescein diacetate (Molecular Probes, Eugene, Oreg.) and the Daudi cells were labeled with 40 ng/ml hydroethidine (Polysciences, Warrington, Pa.) and mixed at a 1:2 ratio (HBSCD4-M.23:Daudi) at a total concentration of 1×10^6 cells/mi. Cells were then incubated in 30 μl RPMI 1640 media at 37° C. for at least 90 minutes in the presence or absence of CPF(DD) or CPF(δF) (at concentrations of 100 μg/ml) and gp120 (20 μg/ml). At the end of the incubation, the cells were gently resuspended to preserve conjugates and scored by fluorescence microscopy. Positive conjugates were scored as at least two cells displaying one fluorescent color bound to at least one cell displaying the other fluorescent color. Samples were analyzed blinded as to their identity, and in duplicate, and at least three counts of 100 fluorescein-labeled cells were performed for each sample. The percentage of conjugates scored was calculated as the total number of conjugates scored divided by the total number of conjugates plus free CD4-expressing (fluorescein-labeled) cells.
# [3] = system: IL-2 production in 16CD4-9 T cell hybridoma cells; details: peptide 200 μg/ml, gp120 5-10 μg/ml, diluted 20-fold and reconcentrated by ultrafiltration
# Procedure: These gp120 solutions were then diluted 20-fold with PBS and the gp120 reconcentrated by ultrafiltration as described in Example 2. The recovered gp120 solutions were then combined with 1×10^5 16CD4-9 T cell hybridoma cells (available from ATCC) and 2×10^5 Daudi cells and cultured overnight at 37° C. IL-2 was detected in the culture supernatants using a cell proliferation assay [Watson, J. Exp. Med. 150: 1510-1515 (1979)], with the modification that proliferation was detected colorimetrically as the cleavage of 3-(4,5-dimethyl-thiazol)-2,6-diphenyl-tetrazolium bromide (MTT) [Finberg et al., Science 249: 287-291 (1990)].
compound,measurement,setting,value
N-carbomethoxylcarbonyl-D-Pro-D-Ala-OBn [CPF(F→A)],"concentration giving 50% inhibition of gp120 binding, fold higher than for CPF(LL)",[1]; in comparison with CPF(LL),2-5 fold
"COC(=O)C(=O)N[C@H](Cc1ccccc1)C(=O)OCc1ccccc1 [CPF(δP), N-carbomethoxylcarbonyl-D-Phe-OBn]",inhibition of gp120 binding to CD4 (corrected mean fluorescence of CD4-expressing cells),[1],does not inhibit gp120 binding to CD4-expressing human cells
"COC(=O)C(=O)N1CCC[C@@H]1C(=O)OCc1ccccc1 [CPF(δF), N-carbomethoxylcarbonyl-D-Pro-OBn]",inhibition of gp120 binding to CD4 (corrected mean fluorescence of CD4-expressing cells),[1],does not inhibit gp120 binding to CD4-expressing human cells
same,kinetics and maximum production of p24,HIV,does not effect either the kinetics or the maximum production of p24
same,p24 antigen in supernatant after co-cultivation of infected T cells and uninfected H9 cells,HIV-1,no different from those detected in co-cultures of T cells and H9 cells incubated without peptides
same,conjugate formation in presence of gp120 preincubated with peptide,[2],does not restrict gp120-mediated inhibition of conjugate formation
same,IL-2 production in presence of gp120 preincubated with peptide,[3],slight increase in the amount of IL-2
O=C(N[C@H](Cc1ccccc1)C(=O)OCc1ccccc1)[C@H]1CCCN1 [(DD) prolylphenylalanylbenzylester] (H-[dP]-[dF]-OBn),inhibition of gp120 binding to CD4 (corrected mean fluorescence of CD4-expressing cells),[1],unable to inhibit gp120 binding
